For 4 molecules, mutagenic call results are on record in PubChem BioAssay AID1259407 (Chemical Carcinogenesis Research Information System (CCRIS), 2018).

Activity calls are given as the source filed them. No rule for the calls is given here.

In the data set the test system is CCRIS mutagenicity, Ames/micronucleus/aberration tests. As to the kind of experiment: CCRIS mutagenicity studies.

On to `O=CC1CO1` (stereo not drawn), for which the mutagenic call by setting is: (Test System: AMES SALMONELLA TYPHIMURIUM, Strain/Indicator: TA100, Metabolic Activation: NONE, Method: STANDARD PLATE) “active; positive”; (Test System: AMES SALMONELLA TYPHIMURIUM, Strain/Indicator: TA1535, Metabolic Activation: NONE, Method: STANDARD PLATE) “active; positive”; (Test System: E. COLI, Strain/Indicator: WP2 UVRA, Metabolic Activation: HAMSTER, LIVER, S-9, AROCLOR 1254, Method: PREINCUBATION) “active; positive”; (Test System: E. COLI, Strain/Indicator: WP2 UVRA, Metabolic Activation: HAMSTER, LIVER, S-9, AROCLOR 1254, Method: STANDARD PLATE) “active; positive”; (Test System: E. COLI, Strain/Indicator: WP2 UVRA, Metabolic Activation: HAMSTER, LIVER, S-9, Method: PREINCUBATION) “active; positive”; (Test System: E. COLI, Strain/Indicator: WP2 UVRA, Metabolic Activation: HAMSTER, LIVER, S-9, Method: STANDARD PLATE) “active; positive”. The mutagenic call runs as follows: (Test System: E. COLI, Strain/Indicator: WP2 UVRA, Metabolic Activation: MOUSE, LIVER, S-9, AROCLOR 1254, Method: PREINCUBATION) “active; positive”; (Test System: E. COLI, Strain/Indicator: WP2 UVRA, Metabolic Activation: MOUSE, LIVER, S-9, AROCLOR 1254, Method: STANDARD PLATE) “active; positive”; (Test System: E. COLI, Strain/Indicator: WP2 UVRA, Metabolic Activation: MOUSE, LIVER, S-9, Method: PREINCUBATION) “active; positive”; (Test System: E. COLI, Strain/Indicator: WP2 UVRA, Metabolic Activation: MOUSE, LIVER, S-9, Method: STANDARD PLATE) “active; positive”; (Test System: E. COLI, Strain/Indicator: WP2 UVRA, Metabolic Activation: NONE, Method: PREINCUBATION) “active; positive”; (Test System: E. COLI, Strain/Indicator: WP2 UVRA, Metabolic Activation: NONE, Method: STANDARD PLATE) “active; positive”. Besides, the mutagenic call (Test System: E. COLI, Strain/Indicator: WP2 UVRA, Metabolic Activation: RAT, LIVER, S-9, AROCLOR 1254, Method: PREINCUBATION) is “active; positive”; the mutagenic call (Test System: E. COLI, Strain/Indicator: WP2 UVRA, Metabolic Activation: RAT, LIVER, S-9, AROCLOR 1254, Method: STANDARD PLATE) was “active; positive”; the mutagenic call (Test System: E. COLI, Strain/Indicator: WP2 UVRA, Metabolic Activation: RAT, LIVER, S-9, Method: PREINCUBATION) was “active; positive”; the mutagenic call (Test System: E. COLI, Strain/Indicator: WP2 UVRA, Metabolic Activation: RAT, LIVER, S-9, Method: STANDARD PLATE) is “active; positive”; the mutagenic call (Test System: UDS HUMAN FIBROBLASTS, Strain/Indicator: THY INCORP (NON-S-PHASE), Metabolic Activation: NONE, Method: LIQUID SCINTILLATION COUNTING) is “active; positive”.

As for `Nc1c(S(=O)(=O)O)cc2cc(S(=O)(=O)O)ccc2c1N=Nc1ccc(-c2ccc(N=Nc3c(N)c(S(=O)(=O)O)cc4cc(S(=O)(=O)O)ccc34)c(Cl)c2)cc1Cl`, the mutagenic call is “inactive; negative” (Test System: AMES SALMONELLA TYPHIMURIUM, Strain/Indicator: TA1538, Metabolic Activation: HAMSTER, LIVER, S-9, Method: STANDARD PLATE) and “inactive; negative” (Test System: AMES SALMONELLA TYPHIMURIUM, Strain/Indicator: TA1538, Metabolic Activation: RAT, LIVER, S-9, AROCLOR 1254, Method: STANDARD PLATE).

For the molecule `CC(CCl)OP(=O)(OC(C)CCl)OC(C)CCl` (stereo not drawn), the mutagenic call was “inactive; negative” (Test System: AMES SALMONELLA TYPHIMURIUM, Strain/Indicator: TA97, Metabolic Activation: HAMSTER, LIVER, S-9, AROCLOR 1254 (10%), Method: PREINCUBATION); “inactive; negative” (Test System: AMES SALMONELLA TYPHIMURIUM, Strain/Indicator: TA97, Metabolic Activation: HAMSTER, LIVER, S-9, AROCLOR 1254 (30%), Method: PREINCUBATION); “inactive; negative” (Test System: AMES SALMONELLA TYPHIMURIUM, Strain/Indicator: TA97, Metabolic Activation: NONE, Method: PREINCUBATION); “inactive; negative” (Test System: AMES SALMONELLA TYPHIMURIUM, Strain/Indicator: TA97, Metabolic Activation: RAT, LIVER, S-9, AROCLOR 1254 (10%), Method: PREINCUBATION); “inactive; negative” (Test System: AMES SALMONELLA TYPHIMURIUM, Strain/Indicator: TA97, Metabolic Activation: RAT, LIVER, S-9, AROCLOR 1254 (30%), Method: PREINCUBATION); “inactive; negative” (Test System: AMES SALMONELLA TYPHIMURIUM, Strain/Indicator: TA98, Metabolic Activation: HAMSTER, LIVER, S-9, AROCLOR 1254 (10%), Method: PREINCUBATION). For the same molecule, the mutagenic call runs as follows: (Test System: AMES SALMONELLA TYPHIMURIUM, Strain/Indicator: TA98, Metabolic Activation: HAMSTER, LIVER, S-9, AROCLOR 1254 (30%), Method: PREINCUBATION) “inactive; negative”; (Test System: AMES SALMONELLA TYPHIMURIUM, Strain/Indicator: TA98, Metabolic Activation: NONE, Method: PREINCUBATION) “inactive; negative”; (Test System: AMES SALMONELLA TYPHIMURIUM, Strain/Indicator: TA98, Metabolic Activation: RAT, LIVER, S-9, AROCLOR 1254 (10%), Method: PREINCUBATION) “inactive; negative”; (Test System: AMES SALMONELLA TYPHIMURIUM, Strain/Indicator: TA98, Metabolic Activation: RAT, LIVER, S-9, AROCLOR 1254 (30%), Method: PREINCUBATION) “inactive; negative”; (Test System: AMES SALMONELLA TYPHIMURIUM, Strain/Indicator: TA100, Metabolic Activation: HAMSTER, LIVER, S-9, AROCLOR 1254 (10%), Method: PREINCUBATION) “inactive; negative”; (Test System: AMES SALMONELLA TYPHIMURIUM, Strain/Indicator: TA100, Metabolic Activation: HAMSTER, LIVER, S-9, AROCLOR 1254 (30%), Method: PREINCUBATION) “inactive; negative”. Moreover, the mutagenic call was “inactive; negative” (Test System: AMES SALMONELLA TYPHIMURIUM, Strain/Indicator: TA100, Metabolic Activation: NONE, Method: PREINCUBATION); “inactive; negative” (Test System: AMES SALMONELLA TYPHIMURIUM, Strain/Indicator: TA100, Metabolic Activation: RAT, LIVER, S-9, AROCLOR 1254 (10%), Method: PREINCUBATION); “inactive; negative” (Test System: AMES SALMONELLA TYPHIMURIUM, Strain/Indicator: TA100, Metabolic Activation: RAT, LIVER, S-9, AROCLOR 1254 (30%), Method: PREINCUBATION); “inactive; negative” (Test System: AMES SALMONELLA TYPHIMURIUM, Strain/Indicator: TA1535, Metabolic Activation: HAMSTER, LIVER, S-9, AROCLOR 1254 (10%), Method: PREINCUBATION); “inactive; negative” (Test System: AMES SALMONELLA TYPHIMURIUM, Strain/Indicator: TA1535, Metabolic Activation: HAMSTER, LIVER, S-9, AROCLOR 1254 (30%), Method: PREINCUBATION); “inactive; negative” (Test System: AMES SALMONELLA TYPHIMURIUM, Strain/Indicator: TA1535, Metabolic Activation: NONE, Method: PREINCUBATION). The mutagenic call is “inactive; negative” (Test System: AMES SALMONELLA TYPHIMURIUM, Strain/Indicator: TA1535, Metabolic Activation: RAT, LIVER, S-9, AROCLOR 1254 (5 OR 30%), Method: PREINCUBATION); “inactive; negative” (Test System: AMES SALMONELLA TYPHIMURIUM, Strain/Indicator: TA1535, Metabolic Activation: RAT, LIVER, S-9, AROCLOR 1254 (10%), Method: PREINCUBATION); “inactive; negative” (Test System: AMES SALMONELLA TYPHIMURIUM, Strain/Indicator: TA1537, Metabolic Activation: HAMSTER, LIVER, S-9, AROCLOR 1254 (30%), Method: PREINCUBATION); “inactive; negative” (Test System: AMES SALMONELLA TYPHIMURIUM, Strain/Indicator: TA1537, Metabolic Activation: NONE, Method: PREINCUBATION); “inactive; negative” (Test System: AMES SALMONELLA TYPHIMURIUM, Strain/Indicator: TA1537, Metabolic Activation: RAT, LIVER, S-9, AROCLOR 1254 (30%), Method: PREINCUBATION).

Regarding `COC(=O)C(N)Cc1ccc(Cl)cc1` (stereo not drawn), the mutagenic call is “inactive; negative” (Test System: AMES SALMONELLA TYPHIMURIUM, Strain/Indicator: TA98, Metabolic Activation: NONE); “inactive; negative” (Test System: AMES SALMONELLA TYPHIMURIUM, Strain/Indicator: TA100, Metabolic Activation: NONE); “inactive; negative” (Test System: AMES SALMONELLA TYPHIMURIUM, Strain/Indicator: TA1535, Metabolic Activation: NONE); “inactive; negative” (Test System: AMES SALMONELLA TYPHIMURIUM, Strain/Indicator: TA1537, Metabolic Activation: NONE); “inactive; negative” (Test System: E. COLI, Strain/Indicator: AB2462 UVRA, Metabolic Activation: NONE, Method: SPOT TEST); “inactive; negative” (Test System: E. COLI, Strain/Indicator: WP6 POLA, Metabolic Activation: NONE, Method: SPOT TEST).
